In patent US7078059B2, “Treatment of bone diseases” (Shire Holdings AG, priority 2000, dated 2006):

What was measured:
[1] = tested on: mouse bone marrow derived osteoprogenitor cells; experiment: In vitro osteoblast differentiation assay (cellular alkaline phosphatase); type: cell-based; conditions: LA number = ng/ml lanthanum; lanthanum (III) ion = 100-15000 ng/ml; 17-estradiol 10^−10 M
Description: We have established a culture model in which mouse bone marrow derived osteoprogenitor cells first proliferate and then differentiate to osteoblasts capable of forming mineralized bone nodules (Qu et al. 1998, Qu et al. 1999). We confirmed this by following the expression of several markers of the osteoblastic phenotype and by studying the morphology of cultures at light and electron microscopic level. […] Thus, this culture system fulfills requirements of an in vitro model useful for studying differentiation of osteoprogenitor cells into bone synthesizing osteoblasts. […] Animals were killed by cervical dislocation. Both femora were removed and the soft tissues were detached aseptically. Metaphyses from both ends were cut off and bone marrow cells were collected by flushing the diaphysis with culture medium: phenol red-free-α-modified essential medium (α-MEM (Gibco BRL, Paisley, UK)). […] The cells were cultured for 6 days and half of the media […] days. […] Cells were washed with warm PBS and adherent cells were detached using trypsin-EDTA. […] The test substances were added at the beginning of the secondary culture without estrogen, and every time when the medium was changed. The number of osteoblasts formed was determined by measuring cellular alkaline phosphatase (ALP) activity in the culture. […] Louis, Mo., USA), and overnight freezing. ALP activity was determined colorimetrically using p-nitrophenylphosphate as substrate at pH 9.7 and determining the optical density at 405 nm. In parallel, protein contents of the wells were determined by the BIO-RAD protein assay, and the specific ALP activity is expressed as units/mg protein. […] Osteoblast differentiation was determined by measuring cellular alkaline phosphatase (ALP) activities and total protein amounts from cell lysates. The ALP activities were divided with the corresponding protein amounts to obtain specific activities of ALP. The results are shown as relative specific activities obtained by dividing each individual value with the mean value of the baseline group.

[2] = tested on: mature osteoblasts; experiment: In vitro bone formation assay (calcium deposition into bone nodules); type: cell-based, mouse; conditions: LA number = ng/ml lanthanum; lanthanum (III) / lanthanum (III) ion = all concentrations tested, 100 to 15,000 ng/ml; 17-estradiol 10^−10M
Experimental: The activity of mature osteoblasts can be determined by quantifying their ability to form mineralized bone matrix. This is done by demineralizing the formed bone matrix, and determining the amount of calcium released. Thus, this culture system fulfills requirements of an in vitro model useful for studying the bone formation activity of mature osteoblasts. […] At the end of the culture, the amount of calcium deposited during the culture period was determined, and the amount of bone formation (calcium deposition) calculated. […] Extracts of 50 μl were complexed with 1 ml determined o-cresol-phthalein-complexon. The colorimetric reaction was determined at 570 nm in a spectrophotometer. Absolute calcium concentrations were determined by comparison with a calibrated standard provided by the vendor. In this study, the effect of lanthanum carbonate on bone formation was tested. […] The amount of bone formation was determined by measuring the amount of calcium deposited into bone nodules formed by mature osteoblasts. The results are shown as the amount of calcium released (mmol/L) from the bone nodules after HCl extraction. The baseline values are too low to show the results using relative amounts as was done in the other assays.

[3] = tested on: osteoclasts cultured on bone slices; experiment: In vitro bone resorption assay (osteoclasts on bovine bone slices, CrossLaps); type: cell-based, rat; conditions: LA number = ng/ml lanthanum; lanthanum (III) ion = any of the concentrations tested (100-15000 ng/ml); bafilomycin Al 10 nM
Description: The method of osteoclast culture on bone slices was originally described by Boyde et al. (1984) and by Chambers et al. (1984). For cell culture, we used a method slightly modified from the original methods (Lakkakorpi et al. 1989, Lakkakorpi and Väänänen, 1991). The rate of bone resorption in the cultures was originally determined by counting the number of resorption pits on each bone or dentine slice using a microscope with phase contrast objectives (Sundquist et al. 1990). Later, the pits were visualized using Wheat Germ Agglutinin lectin that specifically binds to the resorbed area in bone (Selander et al. 1994), making it possible to quantify the total resorbed area using a microscope and computer-assisted image analysis system (Laitala and Väänänen 1994, Hentunen et al. 1995). We used a commercially available method (CrossLaps for cultures, Osteometer Biotech, Herlev, Denmark) to detect the amount of collagen cross-links released into the culture medium as an index of the bone resorption rate (Bagger et al., 1999).
The study protocol uses a method where osteoclasts are cultured on bone slices and allowed to resorb bone. The system is ideal for determining the effect of drug candidates on the bone resorbing activity of osteoclasts. Drug candidates are added into the cell cultures at the beginning of the culture period, and the osteoclasts allowed to resorb bone for 3 days. The amount of bone resorbed during the culture period is determined and compared to the amount of bone resorbed in control cultures (those cultured in the absence of drug candidates).
Transverse 0.1 mm thick slices of cortical bone were cut from the diaphysis of fresh bovine femurs (Atria Slaughterhouse, Oulu, Finland) using a low-speed diamond saw, cleaned by ultrasonication in multiple changes of sterile distilled water, and stored at 4° C. before use. Long bones were removed from 1-day-old rat pups killed by decapitation. […] The resulting suspension of dispersed cells and bone fragments was agitated using a plastic pipette. Larger fragments were allowed to sediment for a few seconds and the supernatant was seeded onto the bone slices pre-wetted in the medium. After a settling period of 30 minutes at 37° C., the bone slices were washed by dipping in fresh medium, and then transferred to wells in 24-well culture dishes containing osteoclast culture medium. The bone slices were incubated in a humidified atmosphere of 95% air and 5% carbon dioxide at 37° C. for 72 hours.
After the culture period, the amount of bone resorption was determined by measuring the amount of collagen cross-links released into the culture medium using a commercial kit (CrossLaps for cultures, Osteometer Biotech) according to the manufacturer s instructions. The number of osteoclasts in each culture was determined by microscopic counting of the amount of TRAP-positive multinuclear cells, and the results are given as the number of collagen cross-links released per one osteoclast.
In the bone resorption assay, the amount of medium CrossLaps (nM) released into the culture medium was determined and the number of osteoclasts in the corresponding cultures calculated. The medium CrossLaps amounts were divided with the osteoclast numbers in the corresponding cultures, and the results are given on Table 1 as relative medium CrossLaps amounts per osteoclasts. The relative values were obtained by dividing each individual value with the mean value of the baseline group.

Row | SMILES | Effect on osteoblast differentiation, in words [1] | Effect on bone formation activity of mature osteoblasts, in words [2] | Effect on bone resorption / bone resorbing activity of mature osteoclasts, in words [3]
1 | C[C@]12CC[C@@H]3c4ccc(O)cc4CC[C@H]3[C@@H]1CC[C@@H]2O [17-β estradiol, reference compound] | activated osteoblast differentiation significantly | activated bone formation significantly | 
2 | CO/C1=C\C(C)=C\[C@@H](C)[C@@H](O)[C@@H](C)C/C(C)=C/C=C/[C@H](OC)[C@@H]([C@@H](C)[C@@H](O)[C@H](C)[C@@]2(O)C[C@@H](O)[C@H](C)[C@@H](C(C)C)O2)OC1=O [Bafilomycin Al, reference compound] |  |  | completely inhibited bone resorption
